Reference: patent US5852028A, “Pyrimidine carboxylates and related compounds and methods for treating inflammatory conditions” (Signal Pharmaceuticals, Inc., priority 1995, dated 1998)

Key:
NFκB/AP-1 = test: NFκB and AP-1 luciferase reporter gene assays in PMA/PHA-stimulated Jurkat T-cells; type: cell-based; conditions: Homo sapiens, stable Jurkat T-cells, PMA/PHA stimulation, 5 h
Excerpt: Stable human Jurkat T-cells containing an NFκB binding site (from the MHC promoter) fused to a minimal SV-40 promoter driving luciferase expression were used in this experiment. Cells were split to 3×10^5 cells/mL every 2-3 days (cell concentration should not exceed 1×10^6 cells/mL to keep the cells proliferating in log phase). These cells were counted, resuspended in fresh medium containing 10% Serum-Plus at a density of 1×10^6 cells/mL and plated in 96 well round bottom plates (200 μ.LAMBDA. per well) 18 hours prior to starting the experiment.
Compounds of this invention, dissolved in dimethyl sulfoxide (3.3, 0.33 and 0.03 μg/mL), were then added to the 96 well plates containing the cells and the plates were incubated for 0.5 h at 37° C. Then 50 ng/mL of phorbol 12-myristate-13-acetate (PMA) and 1 μg/mL of phytohemagglutinin (PHA) were added to each well and the cells were incubated for an additional 5 h at 37° C. The plates were centrifuged at 2200 RPM for 3 minutes at room temperature and then the medium was removed. To each well was added 60 μL of cell lysis buffer and the plates were left at room temperature for 0.25 h. Then 40 μL of each cell extract was transferred to a black 96 well plate and 50 μL of luciferase substrate buffer was added. Luminescence was immediately measured using a Packard TopCount.
For AP-1, the assay was run as described above for NFκB except stable Jurkat T-cells were used that contained a the -73 collagenase promoter driving luciferase expression. In addition, the concentration of PMA used was 5 ng/mL.

mice = conditions: Morris et al., 1990; cited from earlier work
C3H mice = conditions: Morris et al., 1990; cited from earlier work

SMILES | IC50 (NFκB/AP-1) [nM] | activity in contact sensitivity model (delayed-type hypersensitivity to oxazolone) (mice) | activity in graft vs. host model (PLN assay) (C3H mice)
CCOC(=O)c1cnc(NN2C(=O)C=C(C)C2=O)nc1C(F)(F)F [Example 20, Ethyl 2-[N-(1'-aminocitraconamide)]-4-trifluoromethylpyrimidine-5-carboxylate] | 700 |  | 
CCOC(=O)c1cnc(C(F)(F)F)nc1NN1C(=O)C=C(C)C1=O [Example 21, Ethyl 4-[N-(1'-aminocitraconamide)]-2-trifluoromethylpyrimidine-5-carboxylate] | 500 |  | 
CC(=O)c1cnc(NN2C(=O)C=C(C)C2=O)nc1C(F)(F)F [Example 23, 5-acetyl-2-[N-(1'-aminocitraconamide)]-4-trifluoromethylpyrimidine] | 5000 to 10000 |  | 
CCOC(=O)c1cnc(NN2C(=O)C=C(C)C2=O)nc1CC [Example 36, Ethyl 2-[N-(1'-aminocitraconamide)]-4-ethylpyrimidine-5-carboxylate] | 150 |  | 
CCCc1nc(NN2C(=O)C=C(C)C2=O)ncc1C(=O)OCC [Example 37, Ethyl 2-[N-(1'-aminocitraconamide)]-4-propylpyrimidine-5-carboxylate] | 150 |  | 
CCOC(=O)c1cnc(NN2C(=O)C=C(C)C2=O)nc1-c1cccs1 [Example 38, Ethyl 2-[N-(1'-aminocitraconamide)]-4-(2"-thiophenyl)pyrimidine-5-carboxylate] | 40 |  | 
CCOC(=O)c1cnc(NN2C(=O)C=C(c3ccccc3)C2=O)nc1C(F)(F)F [Example 40, Ethyl 2-[N-(1'-amino-3'-phenylmaleimide)]-4-trifluoromethylpyrimidine-5-carboxylate] | 3000 |  | 
CCOC(=O)c1cnc(NN2C(=O)C(C)=C(C)C2=O)nc1C(F)(F)F [Example 41, Ethyl 2-[N-(1'-amino-3',4'-dimethylmaleimide)]-4-trifluoromethylpyrimidine-5-carboxylate] | 5000 |  | 
CCOC(=O)c1cnc(N(C)N2C(=O)C=C(C)C2=O)nc1C(F)(F)F [Example 42, Ethyl 2-[N-(1'-aminocitraconamide)-N-methyl]-4-trifluoromethylpyrimidine-5-carboxylate] | 300 |  | 
CCOC(=O)c1cnc(C(F)(F)F)nc1NN1C(=O)C(C)=C(C)C1=O [Example 44, Ethyl 4-[N-(1'-amino-3',4'-dimethylmaleimido)]-2-trifluoromethylpyrimidine-5-carboxylate] | 10000 to 30000 |  | 
CCOC(=O)c1cnc(NN2C(=O)C=C(C)C2=O)nc1C [Example 46, Ethyl 2-[N-(1'-aminocitraconamido)]-4-methylpyrimidine-5-carboxylate] | 4000 |  | 
CCOC(=O)c1cnc(NN2C(=O)C=C(C)C2=O)nc1C(F)(F)C(F)(F)F [Example 48, Ethyl 2-[N-(1'-aminocitraconamido)]-4-pentafluoroethylpyrimidine-5-carboxylate] | 90 |  | 
CCOC(=O)c1cnc(NN2C(=O)C=C(C)C2=O)nc1-c1ccccc1 [Example 50, Ethyl 2-[N-(1'-aminocitraconamido)]-4-phenylpyrimidine-5-carboxylate] | 1000 |  | 
CCOC(=O)c1cnc(NN2C(=O)C=C(C)C2=O)nc1Cc1ccccc1 [Example 52, Ethyl 2-[N-(1'-aminocitraconamido)]-4-benzylpyrimidine-5-carboxylate] | 2000 |  | 
CCOC(=O)c1cnc(NN2C(=O)C=C(C)C2=O)nc1C(=O)OCC [Example 64, Diethyl 2-[N-(1'-aminocitraconamido)]-pyrimidine-4,5-dicarboxylate] | 1000 |  | 
O=P1(N(CCCl)CCCl)NCCCO1 (centres unmarked) [cyclophosphamide] |  | active | active
